Reference: patent US20110166038A1, “SCREENING METHODS FOR HEAT-SHOCK RESPONSE MODULATORS” (SCREENING METHODS FOR HEAT-SHOCK RESPONSE MODULATIORS, priority 2008, published 2011)

Columns and labels:
Assay type in all cases: cell-based
SH-SY5Y cells = experiment: Rotenone model, MTS readout; settings: 100 nM for 24 hours
From the text: This experiment tests the hits from the MaCRA HSF1 activator screening in a secondary rotenone assay for cytoprotective effects of test compounds on SHSY5Y cells. The rotenone model of Parkinson's disease is an in vitro system for study of protein aggregation induced cytotoxicity. […] See Greenamyre et al., Parkinsonism Relat. Disord., Suppl 2:S59-S64 (2003). Therefore, this in vitro system may be adopted to evaluate cytoprotective effects of the HSF1/HSP70 MaCRA screening hits as carried out essentially as described in Sherer et al., J. Neuroscience, 23(34):10756-10764, 2003. […] In summary, the small molecule HSF1/HSP70 amplifier identified from our HSF1/HSP70 screening can rescue cells from two different stress conditions with cytoprotective benefits, possibly through the mechanism of HSF1/HSP70 amplification.

HSF1 [1] = experiment: MaCRA HCS HSF1 granule assay, heat shock 41° C.
Procedure: (§1) This experiment was directed to developing of a HSF1/HSP70 high-content screening (HCS) assay for screening HSF1 activators. HeLa cells were pretreated with a compound (celastrol) one hour before heat shock at 41° C. for two hours. The dilution in Dulbecco's Modified Eagle's Medium (DMEM) was 200-fold resulting in a final concentration of 30 μM for screening. A custom made aluminum plate was designed for better heat transduction and to achieve a constant temperature with minimal variability for the 96-well plate. The aluminum plate was placed inside a 41° C. incubator for one day prior to the experiment.
Immunocytochemical staining for HSF1 and HSP70 in HeLa cells was performed as in Zhang et al., Biomol Screen., 13(6):538-543, 2008. Image acquisition was performed using an INcell 1000 (GE Healthcare, Piscataway, N.J.) integrated with a Twister II (Caliper Life Sciences, Hopkinton, Mass.) for automated plate delivery. Image analysis was carried out using a Multi Target Analysis module from Workstation 3.6. Algorithms for HSF1/HSP70 granule count, granule area and nuclear intensity CV were established according to assay conditions and manufacture instructions. EC50 values and curve fitting were performed using a Prism 4.0 (GraphPad Software, San Diego, Calif.) with nonlinear regression analysis.
(§2) A Multi Target Analysis Module (MTA) module from Workstation software (GE Healthcare) provides a high-speed measurement of nuclear granules including granule count, granule area, granule intensity and nuclear intensity CV (CV of pixel intensity in the nucleus). FIGS. 2A and 2B provide a quantification of HSF1 variables via granule count and nuclear intensity CV. FIGS. 2C and 2D adopted granule count and granule area for the quantification of HSP70 granules.
By comparison, DMSO-treated cells contain, on average, 2.46±0.22 granules. To achieve a relatively low background, HeLa cells that contained more than 5 HSF1 granules were designated as “HSF1 granule positive cells”. The thresholds for HSF1 nuclear intensity CV, HSP70 granule count and HSP70 granule area were also chosen with gating values equivalent to the average of DMSO treated samples plus 2 or more standard deviations (FIG. 2B-2D).
Experiment 3: HeLa cells were seeded in Costar 96-well assay plates (Costar 3904) at a density of 8,000 cells/well approximately 16 to 24 hours before compound treatment. Subsequently, the cells were treated with DMSO. […] Heat shock was carried out at 41° C. for 2 hours with no recovery time. Immediately following heat shock, 50 μL of 16% para-formaldehyde was mixed with the culture medium (total volume at 150 μL) to a final concentration of 4%. The plates were incubated at room temperature for 30 minutes before washing with PBS. […]

HSP70 [2] = experiment: MaCRA HCS HSP70 granule assay, heat shock 41° C.; settings: Homo sapiens, HeLa, read-out: EC50 of HSP granule area
Procedure: as §1
Immunocytochemical staining for HSF1 and HSP70 in HeLa cells was performed as in Zhang et al., Biomol Screen., 13(6):538-543, 2008. Image acquisition was performed using an INcell 1000 (GE Healthcare, Piscataway, N.J.) integrated with a Twister II (Caliper Life Sciences, Hopkinton, Mass.) for automated plate delivery. […]
as §2, with “granules. […]” for “granules.”

HSP70 [3] = experiment: HSP70 inhibitor assay, heat shock 43° C.; settings: HeLa, 1 μM triptolide or 10 μM CYT compound, 43° C. 1-4 hours, recovery 0-7 hours
Procedure: (§3) Experiment 2: HeLa cells were treated with 1 μM of Triptolide and 10 μM of CYT975 (▪), CYT1563 (▴) and CYT1590 ([…]) 30 minutes before heat shock. The cells subsequently underwent heat shock at 43° C. for 1 hour with 0, 5 or 7 hours recovery time with total HSP70 nuclear and cell intensity as the threshold.
as §3, with “Experiment 3:” for “Experiment 2:”, “for 2 hours” for “for 1 hour”, “0, 4” for “0, 5”, “or 6” for “or 7”
as §3, with “4:” for “2:”, “3 hours” for “1 hour”, “0, 3 or” for “0,”, “5” for “5 or 7”, “threshold. […]” for “threshold.”
Experiment 3: HSP70 expression induced by Triptolide (▪), CYT1563 (▴) and DMSO (0, control) was evaluated in a 96-well plate format (See Example 4) following heat shock at 43° C. for 2 hours with 4 hours recovery time. […]
Experiment 4: HSP70 expression induced by Triptolide (▪), CYT1563 (▴) and DMSO (♦, control) was evaluated in a 96-well plate format (See Example 4) following heat shock at 43° C. for 4 hours with 4 hours recovery time. […]

HSF1 [4] = experiment: HSF1 granule inhibitor assay, heat shock 43° C.; settings: HeLa, 10 nM-10 μM, 43° C. 1-4 hours, threshold 5 granules/nucleus
Procedure: Experiment 1: HeLa cells were treated with four different […] (10 nM, 100 nM, 1 μM and 10 μM) of triptolide and subsequently underwent heat shock at 43° C. for 1 to 4 hours. […] HSF1 granule count was measured with 5 granules/nucleus used as the threshold. Similar assay conditions were used to test the effect of various compounds selected using MaCRA methods as described herein.
Experiment 1: HSF1 granule formation induced by Triptolide (▪), CYT1563 (▴) and DMSO (♦, control) was evaluated in a 96-well plate format (See Example 4) following heat shock at 43° C. for 2 hours with no recovery time. FIG. 26A illustrates the HSF1 inhibition.
Experiment 2: HSF1 granule formation induced by Triptolide (▪), CYT1563 (▴) and DMSO (♦, control) was evaluated in a 96-well plate format (See Example 4) following heat shock at 43° C. for 4 hours with 4 hours recovery time. FIG. 26B illustrates the HSF1 inhibition.
HeLa cells were treated with DMSO (♦) or CYT 1563 (10 μM) (▪) and subsequently heat shocked at 43° C. for 2 h with no recovery time using HSF1 granule count in a 384-well plate format (See Example 10). Results including the Z′ values and Signal/Background (S/B) ratio are illustrated in FIG. 27.

C=C(C)[C@H]1Cc2c(ccc3c2O[C@@H]2COc4cc(OC)c(OC)cc4[C@@H]2C3=O)O1 [rotenone]
SH-SY5Y cells killed (SH-SY5Y cells): more than 42%

CC1=C(O)C(=O)C=C2C1=CC=C1[C@@]2(C)CC[C@@]2(C)[C@@H]3C[C@](C)(C(=O)O)CC[C@]3(C)CC[C@]12C [celastrol]
HSF1 granule positive cells (HSF1 [1]; 96-well, 2 μM, 41° C. 2 h, HSF1 granule count): 59.36% | average HSF1 stress granules per nucleus (HSF1 [1]; HeLa, 2 μM, 41° C. for two hours): 5.34±0.72 granules per nucleus | HSF1 stress granules per nucleus, positive control at 43° C. (HSF1 [1]; HeLa, heat shock 43° C.): about 6.56 | EC50 (HSF1 [1]; Homo sapiens, HeLa, read-out: EC50 of HSF1 intensity CV): 1320 nM | EC50 (HSP70 [2]): 650 nM

CC(C)[C@]12O[C@H]1[C@@H]1O[C@]13[C@]1(O[C@H]1C[C@H]1C4=C(CC[C@@]13C)C(=O)OC4)[C@@H]2O [triptolide]
HSP70 expression after heat shock (HSP70 [3]): reduction of HSP70 expression | inhibition of HSF1 granule formation (HSF1 [4]): dose dependent inhibition of HSF1 granule formation
